# Data reported in article PMC12344293, “A new class of binding-protein dependent solute transporter exemplified by the TAXI-GltS system from Bordetella pertussis” (Communications Biology, 2025).
# T1: BP0403 (Bordetella pertussis, UniProt Q7VSK8, Q263A)
# T1 sequence (Q7VSK8 208-503 Q263A): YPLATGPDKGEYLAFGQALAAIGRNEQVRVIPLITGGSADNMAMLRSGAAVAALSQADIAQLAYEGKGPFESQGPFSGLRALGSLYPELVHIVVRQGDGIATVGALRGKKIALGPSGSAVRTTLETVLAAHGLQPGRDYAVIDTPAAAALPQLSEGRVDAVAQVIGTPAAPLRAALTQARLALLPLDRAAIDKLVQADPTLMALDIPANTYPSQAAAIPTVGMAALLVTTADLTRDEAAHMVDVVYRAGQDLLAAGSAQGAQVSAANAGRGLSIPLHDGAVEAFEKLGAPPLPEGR
# T2: BP0403 (Bordetella pertussis, UniProt Q7VSK8, Y219A)
# T2 sequence (Q7VSK8 208-503 Y219A): T1 sequence (Q7VSK8 208-503 Q263A)
# B1: full-length BP0403 (BP0403FL) (natural protein, Bordetella pertussis, UniProt Q7VSK8 20-503, looked up)
# chain: SRAPDTEILQRDVGQTLAATYGPDLFDIVALRRMGSATDSTAPPGQTRRVVYYDVVLGLKKDLTLGAWDQPGAAALVSLLGAGPRSISGVKSSGNAAGDQIVAHASAIYQRDAEQWVHVAPASFTATEAPSLDTGAPPPVTRQLLQTLEQITRSVPYSASSTAQHVVQQELERSVARINGRLARLQKGYPLATGPDKGEYLAFGQALAAIGRNEQVRVIPLITGGSADNMAMLRSGAAVAALSQADIAQLAYEGKGPFESQGPFSGLRALGSLYPELVHIVVRQGDGIATVGALRGKKIALGPSGSAVRTTLETVLAAHGLQPGRDYAVIDTPAAAALPQLSEGRVDAVAQVIGTPAAPLRAALTQARLALLPLDRAAIDKLVQADPTLMALDIPANTYPSQAAAIPTVGMAALLVTTADLTRDEAAHMVDVVYRAGQDLLAAGSAQGAQVSAANAGRGLSIPLHDGAVEAFEKLGAPPLPEGR
# notes: Codon optimised synthetic gene; also called BP0403 wildtype; source: E. coli BL21 (DE3), pET151, purified (Ni-NTA, SEC)
# Assays:
# [1] = target: T1, BP0403; assay: intrinsic tyrosine fluorescence titration; assay type: binding
# [2] = target: T3, BP0403 (Bordetella pertussis, UniProt Q7VSK8); assay: intrinsic tyrosine fluorescence titration (n = […]); DSF shift on full-length protein and SBP domain; assay type: binding
# T3 construct: BP0403SBP (residues 208–503), isolated C-terminal SBP domain; full-length BP0403FL (without signal peptide) also shifted in DSF
# [3] = target: T2, BP0403; assay: intrinsic tyrosine fluorescence titration; assay type: binding
# [4] = target: the molecule itself; assay: SEC; Superdex 200 Increase 10/300 GL, 0.5 ml/min, SEC buffer (50 mM Tris-HCl pH 8, 100 mM NaCl, 5% glycerol); IMAC eluate incubated 20 min at room temperature with 5 mM EDTA and 100 mM glycerol before loading; elution volume compared with a calibration curve of molecular weight standards
Molecule,Kd [1] [µM],Kd [2] [nM],Kd [3] [µM],stoichiometry N [4]
N[C@@H](CCC(=O)O)C(=O)O [L-glutamate],45 ± 3,180 ± 32,31 ± 6,–
B1,–,–,–,2
